The values below come from BindingDB's records for PubMed 33548635 (University of Aveiro, 2021).

Experiment [1] addresses T1, Amyloid-beta precursor protein (Homo sapiens, UniProt P05067). The experiment in a line: Inhibition of amyloid beta 42 secretion transfected in human H4 cells incubated for 20 to 24 hrs by LPECL assay.
In experiment [2] the target is T1, Amyloid-beta precursor protein. Put plainly: Inhibition of amyloid beta 40 secretion transfected in human H4 cells incubated for 20 to 24 hrs by LPECL assay.

Molecules are shown by their SMILES. Where only a bound is given, the exact number is not on record here.

T1 sequence (P05067 whole entry): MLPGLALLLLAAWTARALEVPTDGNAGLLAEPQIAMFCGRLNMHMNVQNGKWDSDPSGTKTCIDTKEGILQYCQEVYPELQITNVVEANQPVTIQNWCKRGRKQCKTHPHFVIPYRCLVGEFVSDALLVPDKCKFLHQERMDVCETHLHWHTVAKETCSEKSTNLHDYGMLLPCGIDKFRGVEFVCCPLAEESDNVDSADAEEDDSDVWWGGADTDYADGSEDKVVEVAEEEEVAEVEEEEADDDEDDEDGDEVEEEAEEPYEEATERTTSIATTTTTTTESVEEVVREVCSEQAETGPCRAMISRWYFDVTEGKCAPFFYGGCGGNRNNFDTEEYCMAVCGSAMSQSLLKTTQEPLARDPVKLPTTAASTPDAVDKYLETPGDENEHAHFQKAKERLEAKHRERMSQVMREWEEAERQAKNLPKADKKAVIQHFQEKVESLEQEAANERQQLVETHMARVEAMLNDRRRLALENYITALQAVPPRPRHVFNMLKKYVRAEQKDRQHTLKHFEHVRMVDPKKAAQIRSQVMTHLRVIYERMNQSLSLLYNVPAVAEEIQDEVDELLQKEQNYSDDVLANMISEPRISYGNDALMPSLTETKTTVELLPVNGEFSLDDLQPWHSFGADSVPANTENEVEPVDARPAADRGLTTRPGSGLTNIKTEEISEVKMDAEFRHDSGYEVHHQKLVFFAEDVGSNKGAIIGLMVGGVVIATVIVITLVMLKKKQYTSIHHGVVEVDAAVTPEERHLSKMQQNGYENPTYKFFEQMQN

`COc1cc(/C=C/c2cc(/C=C/c3ccc(O)c(OC)c3)n(-c3cc(Cl)cc(Cl)c3)n2)ccc1O`: the figures for the half-maximal inhibitory concentration (IC50) in experiment [1] and in experiment [2] were 3.5 µM and 6.3 µM, respectively.

For the compound `COc1cc(/C=C/c2cc(/C=C/c3ccc(O)c(OC)c3)n(-c3ccccc3)n2)ccc1O`, the concentration for half-maximal inhibition (IC50) (in general, the point on the concentration scale where inhibition reaches its midpoint) in experiment [1] came to 14.2 µM; in experiment [2], 11.3 µM. As for `COc1cc(/C=C/c2cc(/C=C/c3ccc(O)c(OC)c3)n(Cc3ccccc3)n2)ccc1O`, the IC50 in experiment [1] amounted to 15.3 µM; in experiment [2], 11.5 µM. Regarding `COc1cc(/C=C/c2cc(/C=C/c3ccc(O)c(OC)c3)n(-c3ccc(Cl)nn3)n2)ccc1O`, the IC50 in experiment [1] worked out at 4.8 µM; in experiment [2], 5.4 µM. The like results for `COc1cc(/C=C/c2cc(/C=C/c3ccc(O)c(OC)c3)n(-c3ccc(C(C)C)cc3)n2)ccc1O` were, in that order, 4.4 µM and 6.9 µM. For `COc1cc(/C=C/c2cc(/C=C/c3ccc(O)c(OC)c3)n(CCO)n2)ccc1O` the same measures were 17.3 µM and 17.8 µM.

For the compound `COc1cc(/C=C/c2cc(/C=C/c3ccc(O)c(OC)c3)on2)ccc1O` [4-((E)-2-{3-[(E)-2-(4-hydroxy-3-methoxyphenyl)vinyl]isoxazol-5-yl}vinyl)-2-methoxyphenol], the concentration for half-maximal inhibition (IC50) in experiment [1] was found to be 6.8 µM; in experiment [2], 7.4 µM. The like results for `COc1cc(/C=C/c2cc(/C=C/c3ccc(OCC(=O)OC(C)(C)C)c(OC)c3)on2)ccc1OCC(=O)OC(C)(C)C` were, in that order, greater than 40 µM and greater than 40 µM. Regarding `COc1cc(/C=C/c2cc(/C=C/c3ccc(O)c(OC)c3)[nH]n2)ccc1O` [4-(2-(5-(4-hydroxy-3-methoxystyryl)-1H-pyrazol-3-yl)vinyl)-2-methoxyphenol], the IC50 in experiment [1] was determined as 8.7 µM; in experiment [2] it was 9.7 µM. With `COc1cc(/C=C/c2cc(/C=C/c3ccc(OCC(=O)O)c(OC)c3)on2)ccc1OCC(=O)O`, the IC50 in experiment [1] is greater than 40 µM; in experiment [2], 14.1 µM. Regarding `COc1cc(/C=C/c2cc(/C=C/c3ccc(O)c(OC)c3)n(-c3cccc([N+](=O)[O-])c3)n2)ccc1O`, the concentration for half-maximal inhibition (IC50) amounted to 14.2 µM in experiment [1] and 15.1 µM in experiment [2].

`COc1cc(/C=C/c2cc(/C=C/c3ccc(O)c(OC)c3)n(C)n2)ccc1O`: the half-inhibitory concentration (IC50) in experiment [1] came to 9 µM; in experiment [2], 10.4 µM. Turning to `COc1cc(/C=C/c2cc(/C=C/c3ccc(O)c(OC)c3)n(-c3ccc([N+](=O)[O-])cc3)n2)ccc1O`, 6.2 µM corresponded to half-maximal inhibition in experiment [2] (IC50). As to `COc1cc(/C=C/c2cc(/C=C/c3ccc(O)c(OC)c3)n(-c3ccc(C)cc3)n2)ccc1O`, the 50% inhibitory concentration (IC50) was 5 µM in experiment [1] and 8.7 µM in experiment [2].
